Reference: patent publication US10913738B2 (BRISTOL-MYERS SQUIBB COMPANY, priority 2017, dated 2021)
Like-named read-outs stand apart in the source and are kept apart here.

Legend:
[1] = biological target: T1, His-GST-TVMV-hRIPK1(1-324) (Homo sapiens, UniProt Q13546); experiment: RIPK1 HTRF Binding Assay
T1 construct: The coding region of human RIPK1(1-324) flanked by NdeI site at 5′ end; made in house; host or cells: Spodoptera frugiperda (Sf9) insect cells, baculovirus
T1 sequence (Q13546 1-324): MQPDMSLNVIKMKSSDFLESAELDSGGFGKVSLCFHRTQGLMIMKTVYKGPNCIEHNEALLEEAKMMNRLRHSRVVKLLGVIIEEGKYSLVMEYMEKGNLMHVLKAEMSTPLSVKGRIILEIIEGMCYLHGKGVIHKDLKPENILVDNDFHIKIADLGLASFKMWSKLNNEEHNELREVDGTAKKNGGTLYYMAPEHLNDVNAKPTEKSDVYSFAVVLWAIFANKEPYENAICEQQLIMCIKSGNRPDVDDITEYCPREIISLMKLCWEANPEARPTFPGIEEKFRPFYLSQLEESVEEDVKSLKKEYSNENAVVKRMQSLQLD

[2] = tested on: MLKL phosphorylation in HT29-L23 human colorectal adenocarcinoma cells; experiment: MLKL Phosphorylation High-Content Assay; assay type: cell-based; settings: Homo sapiens
In short: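 Cells incubated six hours at 37° C., then phospho-MLKL (S358) immunostained overnight at 4° C. and imaged by high-content microscopy. Phosphorylation quantified as mean circ-ring average intensity ratio; IC50 and Ymax from 4-parameter logistic fits.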

[3] = x marks IC50 class <20 nM, read-out: RIPK1 HTRF binding <20 nM
[4] = x marks IC50 class 20-200 nM, read-out: pMLKL cell activity 20-200 nM
[5] = x marks IC50 class 20-200 nM, read-out: RIPK1 HTRF binding 20-200 nM
[6] = x marks IC50 class >200 nM, read-out: pMLKL cell activity >200 nM
[7] = x marks IC50 class <20 nM, read-out: pMLKL cell activity <20 nM

SMILES | IC50 [1, 3] [µM] | IC50 [2, 4] [µM] | IC50 [1, 5] [µM] | IC50 [2, 6] [µM] | IC50 [2, 7] [µM]
COc1ncc(-c2ccn3nc(N)nc3c2)cc1C(=O)NCc1cc(F)cc(F)c1O[C@@H]1CCOC1 [Example 363, (R)-5-(2-amino-[1,2,4]triazolo[1,5-a]pyridin-7-yl)-N-(3,5-difluoro-2-((tetrahydrofuran-3-yl)oxy)benzyl)-2-methoxynicotinamide] | < 0.02 | 0.02 to 0.2 |  |  | 
COc1ncc(-c2ccn3nc(N)nc3c2)cc1C(=O)NCc1cc(F)cc(F)c1OC1COC1 [Example 364, 5-(2-amino-[1,2,4]triazolo[1,5-a]pyridin-7-yl)-N-(3,5-difluoro-2-(oxetan-3-yloxy)benzyl)-2-methoxynicotinamide] | < 0.02 | 0.02 to 0.2 |  |  | 
COc1ncc(-c2ccn3nc(N)nc3c2)cc1C(=O)NCc1cccc(F)c1CN1CCOCC1 [Example 365, 5-(2-amino-[1,2,4]triazolo[1,5-a]pyridin-7-yl)-N-(3-fluoro-2-(morpholinomethyl)benzyl)-2-methoxynicotinamide] |  |  | 0.02 to 0.2 | > 0.2 | 
COc1nc(C)c(-c2ccn3nc(N)nc3c2)cc1C(=O)NCc1ncccc1OCC(F)(F)F [Example 366, 5-(2-amino-[1,2,4]triazolo[1,5-a]pyridin-7-yl)-2-methoxy-6-methyl-N-((3-(2,2,2-trifluoroethoxy)pyridin-2-yl)methyl)nicotinamide] | < 0.02 |  |  | > 0.2 | 
[2H]C([2H])([2H])N(Cc1cc(OC(F)(F)F)ccc1F)C(=O)c1cc(-c2ccn3nc(N)nc3c2)cnc1OC [Example 367, 5-(2-amino-[1,2,4]triazolo[1,5-a]pyridin-7-yl)-N-(2-fluoro-5-(trifluoromethoxy)benzyl)-2-methoxy-N-(methyl-d3)nicotinamide] | < 0.02 |  |  |  | < 0.02
Nc1nc2cc(-c3cc(C(=O)NCc4cc(OC(F)(F)F)ccc4F)cnc3Cl)ccn2n1 [Example 368, 5-(2-Amino-[1,2,4]triazolo[1,5-a]pyridin-7-yl)-6-chloro-N-(2-fluoro-5-(trifluoromethoxy)benzyl)nicotinamide] | < 0.02 | 0.02 to 0.2 |  |  | 
Nc1nc2cc(-c3cc(C(=O)NCc4cc(F)ccc4OC(F)(F)F)cnc3Cl)ccn2n1 [Example 369, 5-(2-amino-[1,2,4]triazolo[1,5-a]pyridin-7-yl)-6-chloro-N-(5-fluoro-2-(trifluoromethoxy)benzyl)nicotinamide] | < 0.02 | 0.02 to 0.2 |  |  | 
C[C@@H](NC(=O)c1cnc(Cl)c(-c2ccn3nc(N)nc3c2)c1)c1ccccc1OC(F)(F)F [Example 370, (R)-5-(2-amino-[1,2,4]triazolo[1,5-a]pyridin-7-yl)-6-chloro-N-(1-(2-(trifluoromethoxy)phenyl)ethyl)nicotinamide] | < 0.02 | 0.02 to 0.2 |  |  | 
C[C@H](NC(=O)c1cnc(Cl)c(-c2ccn3nc(N)nc3c2)c1)c1cc(OC(F)(F)F)ccc1F [Example 371, (S)-5-(2-amino-[1,2,4]triazolo[1,5-a]pyridin-7-yl)-6-chloro-N-(1-(2-fluoro-5-(trifluoromethoxy)phenyl)ethyl)nicotinamide] | < 0.02 | 0.02 to 0.2 |  |  | 
Nc1nc2cc(-c3cc(C(=O)NCc4ccccc4OC(F)(F)F)cnc3Cl)ccn2n1 [Example 372, 5-(2-amino-[1,2,4]triazolo[1,5-a]pyridin-7-yl)-6-chloro-N-(2-(trifluoromethoxy)benzyl)nicotinamide] | < 0.02 |  |  | > 0.2 | 
CNc1cn2nc(-c3cnc(OC)c(C(=O)N[C@@H](C)c4cc(OC(F)(F)F)ccc4F)c3)ccc2n1 [Example 374, (S)—N-(1-(2-fluoro-5-(trifluoromethoxy)phenyl)ethyl)-2-methoxy-5-(2-(methylamino)imidazo[1,2-b]pyridazin-6-yl)nicotinamide] | < 0.02 | 0.02 to 0.2 |  |  | 
[2H]C([2H])([2H])Nc1nc2cc(-c3cnc(C)c(C(=O)N[C@H](C)c4cc(OC(F)(F)F)ccc4F)c3)ccn2n1 [Example 375, (R)—N-(1-(2-fluoro-5-(trifluoromethoxy)phenyl)ethyl)-2-methyl-5-(2-((methyl-d3)amino)-[1,2,4]triazolo[1,5-a]pyridin-7-yl)nicotinamide] | < 0.02 | 0.02 to 0.2 |  |  | 
COc1ncc(-c2ccn3nc(N)nc3c2)cc1C(=O)NCc1cc(F)ccc1C(=O)N1CCC(F)(F)C1 [Example 376, 5-(2-amino-[1,2,4]triazolo[1,5-a]pyridin-7-yl)-N-(2-(3,3-difluoropyrrolidine-1-carbonyl)-5-fluorobenzyl)-2-methoxynicotinamide] | < 0.02 |  |  |  | < 0.02
COc1ncc(-c2ccn3nc(N)nc3c2)cc1C(=O)NCc1ccccc1C(=O)N1CCC(F)(F)C1 [Example 377, 5-(2-amino-[1,2,4]triazolo[1,5-a]pyridin-7-yl)-N-(2-(3,3-difluoropyrrolidine-1-carbonyl)benzyl)-2-methoxynicotinamide] |  | 0.02 to 0.2 | 0.02 to 0.2 |  | 
COc1nc(C)c(-c2ccn3nc(N)nc3c2)cc1C(=O)NCc1cc(F)cc(F)c1C(=O)N1CCC(F)(F)C1 [Example 380, 5-(2-amino-[1,2,4]triazolo[1,5-a]pyridin-7-yl)-N-(2-(3,3-difluoropyrrolidine-1-carbonyl)-3,5-difluorobenzyl)-2-methoxy-6-methylnicotinamide] | < 0.02 |  |  |  | < 0.02
COc1nc(C)c(-c2ccn3nc(N)nc3c2)cc1C(=O)NCc1cc(F)ccc1C(=O)N1CCC(F)(F)C1 [Example 381, 5-(2-amino-[1,2,4]triazolo[1,5-a]pyridin-7-yl)-N-(2-(3,3-difluoropyrrolidine-1-carbonyl)-5-fluorobenzyl)-2-methoxy-6-methylnicotinamide] | < 0.02 |  |  |  | < 0.02
[2H]C([2H])([2H])[C@@H](NC(=O)c1nc(-c2ccn3nc(N)nc3c2)cnc1OC)c1cc(OC(F)(F)F)ccc1F [Example 383, (R)-6-(2-amino-[1,2,4]triazolo[1,5-a]pyridin-7-yl)-N-(1-(2-fluoro-5-(trifluoromethoxy)phenyl)ethyl-2,2,2-d3)-3-methoxypyrazine-2-carboxamide] | < 0.02 |  |  | > 0.2 | 
COc1ncc(-c2ccn3nc(N)nc3c2)nc1C(=O)NCc1cc(OC(F)(F)F)ccc1F [Example 384, 6-(2-amino-[1,2,4]triazolo[1,5-a]pyridin-7-yl)-N-(2-fluoro-5-(trifluoromethoxy)benzyl)-3-methoxypyrazine-2-carboxamide] |  |  | 0.02 to 0.2 | > 0.2 | 
COc1ncc(-c2ccn3nc(N)nc3c2)nc1C(=O)NCCC(C)c1ccccc1 (stereo not drawn) [Example 385, 6-(2-amino-[1,2,4]triazolo[1,5-a]pyridin-7-yl)-3-methoxy-N-(3-phenylbutyl)pyrazine-2-carboxamide] |  |  | 0.02 to 0.2 | > 0.2 | 
COc1nnc(-c2ccn3nc(N)nc3c2)cc1C(=O)NCc1cc(OC(F)(F)F)ccc1F [Example 386, 6-(2-amino-[1,2,4]triazolo[1,5-a]pyridin-7-yl)-N-(2-fluoro-5-(trifluoromethoxy)benzyl)-3-methoxypyridazine-4-carboxamide] |  |  | 0.02 to 0.2 | > 0.2 | 
COc1nnc(-c2ccn3nc(N)nc3c2)cc1C(=O)NCCC(C)c1ccccc1 (stereo not drawn) [Example 387, 6-(2-amino-[1,2,4]triazolo[1,5-a]pyridin-7-yl)-3-methoxy-N-(3-phenylbutyl)pyridazine-4-carboxamide] |  |  | 0.02 to 0.2 | > 0.2 | 
